Measured values as given in ChEMBL document CHEMBL1150262, “Ring size of somatostatin analogues (ODT-8) modulates receptor selectivity and binding affinity” (J Med Chem, 2008).

Key:
[1] = target: Somatostatin receptor type 1 (Homo sapiens, UniProt P30872); assay: Displacement of [125I]-[Leu8, DTrp22, Tyr25]SRIF28 from human cloned sst1 receptor
[2] = target: Somatostatin receptor type 2 (Homo sapiens, UniProt P30874); assay: Displacement of [125I]-[Leu8, DTrp22, Tyr25]SRIF-28 from human cloned sst2 receptor expressed in CCL39 cells; assay type: cell-based
[3] = target: Somatostatin receptor type 3 (Homo sapiens, UniProt P32745); assay: Displacement of [125I]-[Leu8, DTrp22, Tyr25]SRIF-28 from human cloned sst3 receptor expressed in CCL39 cells; assay type: cell-based
[4] = target: Somatostatin receptor type 4 (Homo sapiens, UniProt P31391); assay: Displacement of [125I]-[Leu8, DTrp22, Tyr25]SRIF-28 from human cloned sst4 receptor expressed in CCL39 cells; assay type: cell-based
[5] = target: Somatostatin receptor type 5 (Homo sapiens, UniProt P35346); assay: Displacement of [125I]-[Leu8, DTrp22, Tyr25]SRIF-28 from human cloned sst5 receptor expressed in CHOK1 cells; assay type: cell-based, CHO-K1
Sequence of Somatostatin receptor type 5 (P35346 whole entry): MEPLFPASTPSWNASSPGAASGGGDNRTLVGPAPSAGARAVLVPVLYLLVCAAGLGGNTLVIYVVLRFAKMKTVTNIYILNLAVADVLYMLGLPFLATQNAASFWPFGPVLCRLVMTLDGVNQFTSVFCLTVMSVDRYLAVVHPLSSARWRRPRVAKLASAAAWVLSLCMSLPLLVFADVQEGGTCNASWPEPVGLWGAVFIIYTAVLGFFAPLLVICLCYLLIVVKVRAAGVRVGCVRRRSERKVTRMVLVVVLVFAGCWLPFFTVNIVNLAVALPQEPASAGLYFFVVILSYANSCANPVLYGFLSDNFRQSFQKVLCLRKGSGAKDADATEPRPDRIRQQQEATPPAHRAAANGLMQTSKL

Sequence of Somatostatin receptor type 4 (P31391 whole entry): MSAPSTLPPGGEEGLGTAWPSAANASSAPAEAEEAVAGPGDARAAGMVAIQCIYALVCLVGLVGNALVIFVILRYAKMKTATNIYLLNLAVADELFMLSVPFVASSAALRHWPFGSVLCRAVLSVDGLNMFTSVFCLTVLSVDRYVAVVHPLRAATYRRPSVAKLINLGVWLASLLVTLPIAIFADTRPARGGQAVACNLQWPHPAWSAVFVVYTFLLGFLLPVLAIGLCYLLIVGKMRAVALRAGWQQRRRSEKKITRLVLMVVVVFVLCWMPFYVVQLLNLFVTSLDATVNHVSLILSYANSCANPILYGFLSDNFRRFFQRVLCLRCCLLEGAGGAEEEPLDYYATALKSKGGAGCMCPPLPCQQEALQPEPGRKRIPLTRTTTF
Sequence of Somatostatin receptor type 1 (P30872 whole entry): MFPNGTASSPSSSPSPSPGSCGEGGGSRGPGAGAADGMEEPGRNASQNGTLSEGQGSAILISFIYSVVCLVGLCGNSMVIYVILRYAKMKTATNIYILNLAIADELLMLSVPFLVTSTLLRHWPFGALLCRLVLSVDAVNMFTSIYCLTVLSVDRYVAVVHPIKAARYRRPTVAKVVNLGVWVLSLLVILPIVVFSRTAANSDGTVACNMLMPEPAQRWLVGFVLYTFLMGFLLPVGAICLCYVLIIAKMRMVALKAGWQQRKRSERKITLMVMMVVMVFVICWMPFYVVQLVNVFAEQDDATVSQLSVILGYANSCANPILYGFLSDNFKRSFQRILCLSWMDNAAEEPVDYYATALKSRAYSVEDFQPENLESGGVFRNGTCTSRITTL
Sequence of Somatostatin receptor type 2 (P30874 whole entry): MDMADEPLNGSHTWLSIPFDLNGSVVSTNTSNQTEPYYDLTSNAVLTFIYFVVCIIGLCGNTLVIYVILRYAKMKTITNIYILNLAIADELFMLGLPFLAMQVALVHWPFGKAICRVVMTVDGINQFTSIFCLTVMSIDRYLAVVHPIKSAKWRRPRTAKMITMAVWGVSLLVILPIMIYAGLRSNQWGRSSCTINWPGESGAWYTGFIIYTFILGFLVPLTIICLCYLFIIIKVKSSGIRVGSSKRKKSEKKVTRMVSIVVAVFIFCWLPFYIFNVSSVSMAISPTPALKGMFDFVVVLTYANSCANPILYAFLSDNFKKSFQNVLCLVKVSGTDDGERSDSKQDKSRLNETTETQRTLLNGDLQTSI
Sequence of Somatostatin receptor type 3 (P32745 whole entry): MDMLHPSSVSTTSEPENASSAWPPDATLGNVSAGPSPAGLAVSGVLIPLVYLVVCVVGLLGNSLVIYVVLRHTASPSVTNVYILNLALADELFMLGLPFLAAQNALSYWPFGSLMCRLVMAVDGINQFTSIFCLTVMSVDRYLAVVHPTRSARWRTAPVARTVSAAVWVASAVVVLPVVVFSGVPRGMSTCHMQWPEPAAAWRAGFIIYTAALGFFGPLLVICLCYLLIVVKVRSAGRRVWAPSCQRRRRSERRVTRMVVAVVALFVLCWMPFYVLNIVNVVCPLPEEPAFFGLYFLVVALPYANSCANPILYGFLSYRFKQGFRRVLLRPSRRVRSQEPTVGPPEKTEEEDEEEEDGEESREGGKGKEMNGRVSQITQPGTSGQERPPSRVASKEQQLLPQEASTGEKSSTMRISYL

SMILES | IC50 [1] [nM] | IC50 [2] [nM] | IC50 [3] [nM] | IC50 [4] [nM] | IC50 [5] [nM]
CC(=O)N[C@@H]1CSS[C@H](C(=O)O)NC(=O)[C@H](Cc2ccccc2)NC(=O)[C@H]([C@@H](C)O)NC(=O)[C@H](CCCCN)NC(=O)[C@@H](Cc2c[nH]c3ccccc23)NC(=O)[C@H](Cc2ccccc2)NC(=O)[C@H](Cc2ccccc2)NC1=O | 540 | 18.5 | 30 | 1.5 | 51
CC(=O)N[C@H]1CSSC[C@H](C(=O)O)NC(=O)[C@H](Cc2ccccc2)NC(=O)[C@H]([C@@H](C)O)NC(=O)[C@H](CCCCN)NC(=O)[C@@H](Cc2c[nH]c3ccccc23)NC(=O)[C@H](Cc2ccccc2)NC(=O)[C@H](Cc2ccccc2)NC1=O | > 1000 | 4.9 | 12 | 4.5 | 11
CC(=O)N[C@@H]1SSC[C@@H](C(=O)O)NC(=O)[C@H](Cc2ccccc2)NC(=O)[C@H]([C@@H](C)O)NC(=O)[C@H](CCCCN)NC(=O)[C@@H](Cc2c[nH]c3ccccc23)NC(=O)[C@H](Cc2ccccc2)NC(=O)[C@H](Cc2ccccc2)NC1=O | 79 | 33 | 6 | 1.9 | 9
C[C@@H](O)[C@@H]1NC(=O)[C@H](CCCCN)NC(=O)[C@@H](Cc2c[nH]c3ccccc23)NC(=O)[C@H](Cc2ccccc2)NC(=O)[C@H](Cc2ccccc2)NC(=O)[C@@H](N)CSSC[C@H](C(=O)O)NC(=O)[C@H](Cc2ccccc2)NC1=O | > 1000 | 18 | 18.5 | 8.2 | 27
CC(=O)N[C@@H]1CSSC[C@@H](C(=O)O)NC(=O)[C@H](Cc2ccccc2)NC(=O)[C@H]([C@@H](C)O)NC(=O)[C@H](CCCCN)NC(=O)[C@@H](Cc2c[nH]c3ccccc23)NC(=O)[C@H](Cc2ccccc2)NC(=O)[C@H](Cc2ccccc2)NC1=O | 16 | 8 | 19 | 0.7 | 9.1
CC(=O)N[C@H]1CCSSC[C@@H](C(=O)O)NC(=O)[C@H](Cc2ccccc2)NC(=O)[C@H]([C@@H](C)O)NC(=O)[C@H](CCCCN)NC(=O)[C@@H](Cc2c[nH]c3ccccc23)NC(=O)[C@H](Cc2ccccc2)NC(=O)[C@H](Cc2ccccc2)NC1=O | 96 | 6.5 | 38 | 0.9 | 28
CC(=O)N[C@H]1SS[C@@H](C(=O)O)NC(=O)[C@H](Cc2ccccc2)NC(=O)[C@H]([C@@H](C)O)NC(=O)[C@H](CCCCN)NC(=O)[C@@H](Cc2c[nH]c3ccccc23)NC(=O)[C@H](Cc2ccccc2)NC(=O)[C@H](Cc2ccccc2)NC1=O | > 1000 | 13 | 31 | 2.2 | 21
CC(=O)N[C@@H]1CSS[C@@H](C(=O)O)NC(=O)[C@H](Cc2ccccc2)NC(=O)[C@H]([C@@H](C)O)NC(=O)[C@H](CCCCN)NC(=O)[C@@H](Cc2c[nH]c3ccccc23)NC(=O)[C@H](Cc2ccccc2)NC(=O)[C@H](Cc2ccccc2)NC1=O | > 1000 | 4.8 | 36 | 3 | 17
CC(=O)N[C@H]1SSC[C@H](C(=O)O)NC(=O)[C@H](Cc2ccccc2)NC(=O)[C@H]([C@@H](C)O)NC(=O)[C@H](CCCCN)NC(=O)[C@@H](Cc2c[nH]c3ccccc23)NC(=O)[C@H](Cc2ccccc2)NC(=O)[C@H](Cc2ccccc2)NC1=O | > 1000 | 13 | 28 | 5 | 50
C[C@@H](O)[C@@H]1NC(=O)[C@H](CCCCN)NC(=O)[C@@H](Cc2c[nH]c3ccccc23)NC(=O)[C@H](Cc2ccccc2)NC(=O)[C@H](Cc2ccccc2)NC(=O)C(N)CSSC[C@@H](C(=O)O)NC(=O)[C@H](Cc2ccccc2)NC1=O (single isomer, unassigned) | 14 | 14.5 | 4.5 | 1 | 9.5
CC(=O)N[C@@H]1SS[C@@H](C(=O)O)NC(=O)[C@H](Cc2ccccc2)NC(=O)[C@H]([C@@H](C)O)NC(=O)[C@H](CCCCN)NC(=O)[C@@H](Cc2c[nH]c3ccccc23)NC(=O)[C@H](Cc2ccccc2)NC(=O)[C@H](Cc2ccccc2)NC1=O | > 1000 | 3.9 | 50 | 2.6 | 60
C[C@@H](O)[C@@H]1NC(=O)[C@H](CCCCN)NC(=O)[C@@H](Cc2c[nH]c3ccccc23)NC(=O)[C@H](Cc2ccccc2)NC(=O)[C@H](Cc2ccccc2)NC(=O)[C@H](N)CSSC[C@H](C(=O)O)NC(=O)[C@H](Cc2ccccc2)NC1=O | > 1000 | 11 | 6.3 | 2.6 | 8.7
CC(=O)N[C@@H]1CCSSC[C@@H](C(=O)O)NC(=O)[C@H](Cc2ccccc2)NC(=O)[C@H]([C@@H](C)O)NC(=O)[C@H](CCCCN)NC(=O)[C@@H](Cc2c[nH]c3ccccc23)NC(=O)[C@H](Cc2ccccc2)NC(=O)[C@H](Cc2ccccc2)NC1=O | 218 | 40 | 69 | 1.4 | 90
CC(=O)N[C@@H]1SS[C@H](C(=O)O)NC(=O)[C@H](Cc2ccccc2)NC(=O)[C@H]([C@@H](C)O)NC(=O)[C@H](CCCCN)NC(=O)[C@@H](Cc2c[nH]c3ccccc23)NC(=O)[C@H](Cc2ccccc2)NC(=O)[C@H](Cc2ccccc2)NC1=O | 302 | 34 | 19 | 1.6 | 57
CC(=O)N[C@H]1CSS[C@H](C(=O)O)NC(=O)[C@H](Cc2ccccc2)NC(=O)[C@H]([C@@H](C)O)NC(=O)[C@H](CCCCN)NC(=O)[C@@H](Cc2c[nH]c3ccccc23)NC(=O)[C@H](Cc2ccccc2)NC(=O)[C@H](Cc2ccccc2)NC1=O | 358 | 41 | 20 | 2 | 50
CC(=O)N[C@@H]1SSC[C@H](C(=O)O)NC(=O)[C@H](Cc2ccccc2)NC(=O)[C@H]([C@@H](C)O)NC(=O)[C@H](CCCCN)NC(=O)[C@@H](Cc2c[nH]c3ccccc23)NC(=O)[C@H](Cc2ccccc2)NC(=O)[C@H](Cc2ccccc2)NC1=O | > 1000 | 11 | 69 | 4.4 | 50
CC(=O)N[C@@H]1CSSC[C@H](C(=O)O)NC(=O)[C@H](Cc2ccccc2)NC(=O)[C@H]([C@@H](C)O)NC(=O)[C@H](CCCCN)NC(=O)[C@@H](Cc2c[nH]c3ccccc23)NC(=O)[C@H](Cc2ccccc2)NC(=O)[C@H](Cc2ccccc2)NC1=O | > 1000 | 9 | 15 | 3.25 | 7.4
CC(=O)N[C@H]1SS[C@H](C(=O)O)NC(=O)[C@H](Cc2ccccc2)NC(=O)[C@H]([C@@H](C)O)NC(=O)[C@H](CCCCN)NC(=O)[C@@H](Cc2c[nH]c3ccccc23)NC(=O)[C@H](Cc2ccccc2)NC(=O)[C@H](Cc2ccccc2)NC1=O | > 1000 | 109 | 45 | 2.7 | 107
CC(=O)N[C@H]1CSSC[C@@H](C(=O)O)NC(=O)[C@H](Cc2ccccc2)NC(=O)[C@H]([C@@H](C)O)NC(=O)[C@H](CCCCN)NC(=O)[C@@H](Cc2c[nH]c3ccccc23)NC(=O)[C@H](Cc2ccccc2)NC(=O)[C@H](Cc2ccccc2)NC1=O | 22 | 49 | 7.1 | 1.3 | 26
CC(=O)N[C@H]1CSS[C@@H](C(=O)O)NC(=O)[C@H](Cc2ccccc2)NC(=O)[C@H]([C@@H](C)O)NC(=O)[C@H](CCCCN)NC(=O)[C@@H](Cc2c[nH]c3ccccc23)NC(=O)[C@H](Cc2ccccc2)NC(=O)[C@H](Cc2ccccc2)NC1=O | > 1000 | 5.4 | 53 | 6 | 82
CC(=O)N[C@H]1SSC[C@@H](C(=O)O)NC(=O)[C@H](Cc2ccccc2)NC(=O)[C@H]([C@@H](C)O)NC(=O)[C@H](CCCCN)NC(=O)[C@@H](Cc2c[nH]c3ccccc23)NC(=O)[C@H](Cc2ccccc2)NC(=O)[C@H](Cc2ccccc2)NC1=O | 416 | 42 | 14 | 3.1 | 46
